Source: US20030186943A1, “Substituted gamma-phenyl-delta-lactams and uses related thereto” (Inflazyme Pharmaceuticals Ltd., priority 1998, published 2003)
Read-outs that look alike come from different tables or passages of the source.

Tests used:
[1] = tested on: primary human neutrophils; experiment: Generation of reactive oxygen species by fMLP-activated neutrophils (luminol-enhanced chemiluminescence); assay type: cell-based; details: Neutrophil
Method in brief: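 Fresh primary human neutrophils (5×10^6 cells/mL) preincubated 30 min at 37° C with compound in Ca^2+-containing HBSS pH 7.4, then stimulated with 1 μM fMLP in presence of 1 μM luminol. Chemiluminescence integrated over 30 min; IC50 from non-linear regression versus 0.25% DMSO control.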

[2] = tested on: IFN-gamma production in concanavalin A stimulated primary human CD4+ T-cells; experiment: IFN-gamma production (Th1 profile) in concanavalin A stimulated primary human CD4+ T-cells; assay type: cell-based; details: T-cell, 10 μg/mL Concanavalin A, 48 hours, X marks this range, read-out: INF-GAMMA IC50 RANGE (μM) 0.2-2.0
Description: The assay on the primary human T-cells involves their activation by concanavalin A (conA); (Sigma, Catalogue No. C 5275), followed by ELISA detection for cytokines for either profile. In the case of Th1-profiles, IL-2 and INF-γ are used as benchmarks while IL-10 is the indicator for a Th2-profile. Biologically, these indicators are useful in that IL-2 is the major T-cell mitogen while IL-10 represents a powerful yet selective immunosuppressive agent.
(§1) Approximately 60 cc of whole human blood was collected into ACD anti-coagulant vacutainer tubes. 15 mL Ficoll Paque 1077 was aliquoted into 6 sterile 50 mL conical tubes. 10 mL of blood was slowly layered on top of the Ficoll Paque by holding the tube upright and resting the pipette tip at the inside edge of the tube and allowing the blood to slowly run down the side of the tube. Tubes were spun at 1700 rpm for 30 minutes at room temperature. The plasma layer above the leukocyte band was aspirated off and a pasteur pipette was used to lift off the leukocyte band and transfer it to a sterile 50 mL conical tube. Cells from each leukocyte gradiant tube were transferred to a separate 50 mL conical tube. Sterile PBS pH 7.4 was added to each 50 mL conical tube containing cells from leukocyte band to a volume of 50 mL. Tubes were spun at 1100 rpm for 10 minutes. Supernatant was aspirated off and the cells were resuspended in 50 mL PBS pH 7.4. Tubes were re-centrifuged at 1100 rpm for 10 minutes. Supernatant was aspirated off and the cells were resuspended in appropriate medium at a density of 5×10^7 cells/mL or 2×10^6 cells/mL.
(§2) CD 4+T-cell Preparation: Cells from Leukocyte preparation were resuspended in sterile PBS pH 7.4 supplemented with 2-6% Fetal Bovine Serum (FBS) at a density of 5×10^7 cells/mL. Cells were then ready for isolation.
(§3) 100 μL of antibody cocktail (Stem Cell Technologies, Catalogue No. 14062) was added for each mL of cells and mixed well. Cells+Ab cocktail was incubated on ice for 30 minutes. After 30 minute incubation, 60 μL of magnetic colloid was added for each mL of cells, and mixed well. Cells+Ab cocktail+magnetic colloid were incubated on ice for 30 minutes. After a final 30 minute incubation cells were ready for magnetic cell separation.
(§4) Sample was loaded into the top of a column. The stopcock was turned to allow the flow of media down through the column, and the media was collected into a collection tube. PBS supplemented with 2-6% FBS was added to the column until three column volumes had been collected (not including the volume of the start sample). Cells were washed, counted, and resuspended in RPMI 1640 with 10% FBS+2 mM L-glutamine at a density of 1×10^6 cells/mL.
(§5) CD4+ T-cells were isolated as described above. Cells were suspended in RPMI 1640 media (Stem Cell Technologies Inc.; Catalogue No. 36750) with 10% FBS+2 mM L-glutamine at a density of 1×10^6 cells/mL. Cells were maintained on ice as test compounds were prepared. Test compounds were prepared in a sterile 96-well assay plate at 50×the final desired test concentration, all wells contained an equal amount of dimethylsulfoxide vehicle. 500 μL of CD4^+ T-cells were added to each well of 24-well assay plate. 10 μL of each test compound working solution was added to the appropriate wells; two wells were left as stimulated and non-stimulated controls. 10 μL of concanavalin A (50×the final concentration) at 10 μg/mL was added to each well with the exception of the non-stimulated control wells. Cells were incubated at 37° C. for 48 hours. Conditioned media is then assessed by ELISA for the quantity of IL-2, […], TNFα and IL-10 present.
Tables 5A, 5B and 5C represent a synopsis of data across individuals with respects to the potency of compounds of the invention in their ability to inhibit cytokines that are likely to promote or depress a Th1 or Th2 response. […]

[3] = tested on: High Affinity Rolipram Binding Site of PDE4 in Mouse Brain; experiment: Displacement of [3H]-rolipram from its high affinity binding site (HARBS); details: for PDE4:HARBS: ratio of IC50 for PDE4 catalytic activity to concentration displacing 50% of rolipram from HARBS
[4] = tested on: TNF-α production in concanavalin-A stimulated primary human CD4+ T-lymphocytes; experiment: TNF-α production in Con-A stimulated human CD4+ T-cells (ELISA); assay type: cell-based; details: T-lymphocyte, X marks this range
Protocol: Activated T-lymphocytes are known to produce TNF-α and may constitute a significant source of this important inflammatory mediator in localized regions of inflammation such as the rheumatoid synovium or psoriatic lesions. Supernatants from cona-stimulated primary human CD4+ T-cells that had been incubated in the presence or absence of a test compound were analyzed for TNF-α using an ELISA system. (Pharingen; recommended anti-TNF antibody set 18631-D and 18642-D). Substantial quantities of TNF-α were induced in vehicle treated T-cells stimulated with conA. […] This may be due to the differing sensitivity of monocyte/macrophages versus T-lymphocytes to elevations in intracellular cAMP with respect to regulatory pathways impacting TNF-α production.
as §1, §2, §3, §4, §5

[5] = read-out: IC50 RANGE (μM) <1, ROS production, X marks this range
[6] = ROS production, X marks this range, read-out: IC50 RANGE (μM) 1-10
[7] = read-out: TNF-alpha IC50 RANGE (μM) 2.0-20
[8] = read-out: TNF-alpha IC50 RANGE (μM) <2

`COc1cc(C[C@@H]2CC(c3ccc(OC)c(OC)c3)COC2=O)ccc1O` (mixture of isomers) [Compound 12] showed an IC50 [1, 5] of less than 1 µM.

`COc1cc(C[C@@H]2C[C@@H](c3ccc(OC)c(OC)c3)COC2=O)ccc1O` [Compound 30] was tested, and the IC50 [2] was 0.2 to 2 µM, the IC50 [1, 6] was 1 to 10 µM and the “PDE4:HARBS” value [3] was less than 1. For the same molecule, the IC50 [4, 7] was 2 to 20 µM.

For `COc1ccc([C@@H]2CCC(=O)OC2)cc1OC1CCCC1` [Compound 41], the IC50 [1, 5] was less than 1 µM and the “PDE4:HARBS” value [3] was greater than 1.

With `COc1cc(CC2C[C@@H](c3ccc(OC)c(OC4CCCC4)c3)COC2=O)ccc1O` (some centres unmarked) [Compound 43] the IC50 [2] was 0.2 to 2 µM, the IC50 [1, 5] was less than 1 µM and the “ratio of IC50's for PDE4catalytic to PDE4HARBS” value [3] was 1.04. The “PDE4:HARBS” value [3] was greater than 1 and the IC50 [4, 7] was 2 to 20 µM.

For `COc1ccc([C@H]2CNC(=O)C(Cc3ccc(OCc4ccccc4)c(OC)c3)C2)cc1OC` (some centres unmarked) [Compound 54], the IC50 [2] was 0.2 to 2 µM, the IC50 [1, 6] was 1 to 10 µM and the “PDE4:HARBS” value [3] was greater than 1. It also gave an IC50 [4, 8] of less than 2 µM.

For `COc1cc(CC2C[C@@H](c3ccc(OC)c(OC)c3)CNC2=O)ccc1O` (some centres unmarked) [Compound 55], the IC50 [2] was 0.2 to 2 µM, the IC50 [1, 6] was 1 to 10 µM and the “PDE4:HARBS” value [3] was greater than 1. It also gave an IC50 [4, 7] of 2 to 20 µM.

With `COc1cc(CC2C[C@@H](c3ccc(OC)c(OC4CCCC4)c3)CNC2=O)ccc1O` (some centres unmarked) [Compound 62] the IC50 [2] was 0.2 to 2 µM, the IC50 ([1]; ROS production, X marks this range, read-out: IC50 RANGE (μM) 10-100) was 10 to 100 µM and the “PDE4:HARBS” value [3] was greater than 1. It also gave an IC50 [4, 8] of less than 2 µM.

Work on `COc1ccc(C2CNC(=O)C2)cc1OC1CCCC1` (centres unmarked) [Rolipram, reference compound] yielded an IC50 [2] of 0.2 to 2 µM and an IC50 [4, 8] of less than 2 µM.
